ChEMBL document CHEMBL2412979, “2-(2-Methylfuran-3-carboxamido)-3-phenylpropanoic acid, a potential CYP26A1 inhibitor to enhance all-trans retinoic acid-induced leukemia cell differentiation based on virtual screening and biological evaluation” (Bioorg Med Chem, 2013)

How the values were obtained:
NB-4 [1] = assay: Potentiation of ATRA-induced human NB4 cell differentiation at 10 uM after 96 hrs by nitroblue tetrazolium assay (reference value: 29.44 +/- 2.03%); assay type: functional
NB-4 [2] = assay: Potentiation of ATRA-induced human NB4 cell differentiation at 5 uM after 96 hrs by nitroblue tetrazolium assay (reference value: 29.44 +/- 2.03%); assay type: functional
NB-4 [3] = assay: Induction of human NB4 cell differentiation at 0.5 to 10 uM after 96 hrs by nitroblue tetrazolium assay relative to control; assay type: functional
NB-4 [4] = assay: Potentiation of ATRA-induced human NB4 cell growth inhibition at 10 uM after 96 hrs by hemocytometry (reference value: 32.70 +/- 2.25%); assay type: functional; settings: NB-4, 96 h, read-out: GI
NB-4 [5] = assay: Potentiation of ATRA-induced human NB4 cell growth inhibition at 5 uM after 96 hrs by hemocytometry (reference value: 32.70 +/- 2.25%); assay type: functional; settings: NB-4, 96 h, read-out: GI
NB-4 [6] = assay: Cytotoxicity against human NB4 cells assessed as growth inhibition at 10 uM after 96 hrs by hemocytometry relative to control; assay type: functional; settings: NB-4, 96 h, read-out: GI
NB-4 [7] = assay: Cytotoxicity against human NB4 cells assessed as growth inhibition at 5 uM after 96 hrs by hemocytometry relative to control; assay type: functional; settings: NB-4, 96 h, read-out: GI
NB-4 [8] = assay: Potentiation of ATRA-induced human NB4 cell differentiation at 1 uM after 96 hrs by nitroblue tetrazolium assay (reference value: 29.93 +/- 0.73%); assay type: functional
NB-4 [9] = assay: Potentiation of ATRA-induced human NB4 cell growth inhibition at 1 uM after 96 hrs by hemocytometry (reference value: 32.42 +/- 3.98%); assay type: functional; settings: NB-4, 96 h, read-out: GI
NB-4 [10] = assay: Potentiation of ATRA-induced human NB4 cell differentiation at 0.5 uM after 96 hrs by nitroblue tetrazolium assay (reference value: 29.93 +/- 0.73%); assay type: functional
NB-4 [11] = assay: Cytotoxicity against human NB4 cells assessed as growth inhibition at 1 uM after 96 hrs by hemocytometry relative to control; assay type: functional; settings: NB-4, 96 h, read-out: GI
NB-4 [12] = assay: Potentiation of ATRA-induced human NB4 cell growth inhibition at 0.5 uM after 96 hrs by hemocytometry (reference value: 32.42 +/- 3.98%); assay type: functional; settings: NB-4, 96 h, read-out: GI
NB-4 [13] = assay: Cytotoxicity against human NB4 cells assessed as growth inhibition at 0.5 uM after 96 hrs by hemocytometry relative to control; assay type: functional; settings: NB-4, 96 h, read-out: GI
Cytochrome P450 26A1 = target: T1, Cytochrome P450 26A1 (Homo sapiens, UniProt O43174); assay: Inhibition of CYP26A1 in human NB4 cells assessed as ATRA level in medium at 5 uM after 12 hrs by LC-MS/MS analysis (reference value: 27.05 +/- 1.34 ng/ml); assay type: cell-based; settings: nb-4, 12 h
T1 sequence (O43174 whole entry): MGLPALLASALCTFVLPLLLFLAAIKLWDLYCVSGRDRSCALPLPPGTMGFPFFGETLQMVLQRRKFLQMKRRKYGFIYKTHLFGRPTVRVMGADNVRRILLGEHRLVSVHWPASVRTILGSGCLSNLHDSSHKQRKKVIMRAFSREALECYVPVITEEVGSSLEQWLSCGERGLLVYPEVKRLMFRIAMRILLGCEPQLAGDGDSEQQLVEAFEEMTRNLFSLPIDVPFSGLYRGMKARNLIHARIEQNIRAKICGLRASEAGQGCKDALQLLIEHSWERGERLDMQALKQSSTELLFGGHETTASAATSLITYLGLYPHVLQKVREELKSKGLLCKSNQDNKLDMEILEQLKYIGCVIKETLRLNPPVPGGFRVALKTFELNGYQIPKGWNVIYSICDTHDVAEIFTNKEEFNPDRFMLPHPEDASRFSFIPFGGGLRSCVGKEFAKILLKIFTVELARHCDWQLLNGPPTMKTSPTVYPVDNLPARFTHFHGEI

SMILES | Activity (NB-4 [1]) [%] | Activity (NB-4 [2]) [%] | Activity (NB-4 [3]) [%] | inhibition of growth at 10 µM (NB-4 [4]) [%] | inhibition of growth at 5 µM (NB-4 [5]) [%] | inhibition of growth at 10 µM (NB-4 [6]) [%] | inhibition of growth at 5 µM (NB-4 [7]) [%] | Activity (NB-4 [8]) [%] | inhibition of growth at 1 µM (NB-4 [9]) [%] | Activity (NB-4 [10]) [%] | inhibition of growth at 1 µM (NB-4 [11]) [%] | inhibition of growth at 0.5 µM (NB-4 [12]) [%] | inhibition of growth at 0.5 µM (NB-4 [13]) [%] | Activity (Cytochrome P450 26A1) [ng/mL]
Cc1ccc(OCc2nc(-c3cccnc3)no2)c(Br)c1 | 28.85 | 25.37 | 0 | 42.9 | 39.8 | 23.5 | 18.2 | – | – | – | – | – | – | –
O=C(O)c1ccc(COc2ccc(/C=C3\SC(=O)N(c4cccc(Cl)c4)C3=O)cc2)cc1 | 41.85 | 38.42 | 0 | 41.1 | 43.8 | 9.07 | 11 | 35.4 | 53.7 | 31.47 | 18 | 44.1 | 18.6 | –
Clc1cccc(C(c2ccc3[nH]cnc3c2)n2ccnc2)c1 (stereo not given) [LIAROZOLE] | 34.9 | 33.53 | 0 | 56.3 | 55.3 | 40.9 | 32.7 | 38.22 | 46 | 42.86 | 23.1 | 49.6 | 14.5 | 39.78
O=C(CCN1C(=O)c2ccccc2C1=O)NCc1ccncc1 | 41.21 | 41.55 | 0 | 49.7 | 50.9 | 12.4 | 14.6 | 37.16 | 48.5 | 35.05 | 16.5 | 50.8 | 14.2 | –
O=C(CCN1C(=O)c2ccccc2C1=O)Nc1cc(Cl)ccc1C(=O)O | 36.7 | 39.6 | 0 | 39.1 | 41.3 | 9.31 | 3.68 | 36.18 | 38.6 | 35.1 | 19.2 | 47.9 | 13.8 | –
COc1ccc(/C=C/C(=O)Nc2sc3c(c2C(=O)O)CCC3)cc1 | 31.42 | 30.05 | 0 | 34.9 | 31.5 | 1.22 | 0.49 | – | – | – | – | – | – | –
CC1=CC(=O)OC2C=C(OCCOc3ccc(C(C)(C)C)cc3)C=CC12 (stereo not given) | 42.39 | 39.97 | 0 | 48.3 | 43.5 | 6.78 | 7.78 | 38.42 | 43 | 35.72 | 13.6 | 46.1 | 14.4 | –
